Key:
Assay type in all cases: in vivo
[1] = test system: lambsquarters (Chenopodium album, CHEAL); assay: Pre-emerge test, greenhouse herbicide activity screening; conditions: pre-emerge, 14 days after application, rating scale 0-100
In short: (§1)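 Sandy loam pots; pre-emerge: sown 1 d pre-spray, surface-watered after, then bottom-watered. Post-emerge: sown 8–21 d before, 2–3 leaf stage, + 0.25% v/v NIS, bottom-watered. Acetone, 187 l/ha track spray, 15–1000 g ai/ha. 0–100 injury score, day 14.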

[2] = test system: large crabgrass (Digitaria sanguinalis, DIGSA); assay: as above; conditions: pre-emerge, 14 days after application, rating scale 0-100
In short: as §1

[3] = test system: common ragweed (Ambrosia artemisizfolia L., AMBEL); assay: as above; conditions: pre-emerge, 14 days after application, rating scale 0-100
In short: as §1

[4] = test system: barnyardgrass (Echinochloa crus-galli, ECHCG); assay: as above; conditions: pre-emerge, 14 days after application, rating scale 0-100
In short: as §1

[5] = test system: velvetleaf (Abutilon theophrasti, ABUTH); assay: as above; conditions: pre-emerge, 14 days after application, rating scale 0-100
In short: as §1

[6] = test system: johnsongrass (Sorghum halepense, SORHA); assay: as above; conditions: pre-emerge, 14 days after application, rating scale 0-100
In short: as §1

[7] = test system: green foxtail (Setaria viridis, SETVI); assay: as above; conditions: pre-emerge, 14 days after application, rating scale 0-100
In short: as §1

[8] = test system: ivyleaf morningglory (Ipomoea hederacea, IPOHE); assay: as above; conditions: pre-emerge, 14 days after application, rating scale 0-100
In short: as §1

[9] = test system: sicklepod (Cassia obtusifolia, CASOB); assay: as above; conditions: pre-emerge, 14 days after application, rating scale 0-100
In short: as §1

[10] = test system: lambsquarters (Chenopodium album, CHEAL); assay: Post-emerge test, greenhouse herbicide activity screening; conditions: post-emerge, 14 days after application, rating scale 0-100
In short: (§2)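 Rating: 0–100 visual injury, 14 DAA. Application: acetone, 187 l/ha, 15–1000 g ai/ha, flat-fan track sprayer with nozzle 40–45 cm above soil or canopy. Post-emerge runs used 0.25% v/v surfactant on 2–3 leaf plants.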

[11] = test system: large crabgrass (Digitaria sanguinalis, DIGSA); assay: as above; conditions: post-emerge, 14 days after application, rating scale 0-100
In short: as §2

[12] = test system: barnyardgrass (Echinochloa crus-galli, ECHCG); assay: as above; conditions: post-emerge, 14 days after application, rating scale 0-100
In short: as §2

[13] = test system: redroot pigweed (Amaranthus retroflexus, AMARE); assay: as above; conditions: post-emerge, 14 days after application
In short: as §2

[14] = test system: velvetleaf (Abutilon theophrasti, ABUTH); assay: as above; conditions: post-emerge, 14 days after application, rating scale 0-100
In short: as §2

[15] = test system: johnsongrass (Sorghum halepense, SORHA); assay: as above; conditions: post-emerge, 14 days after application, rating scale 0-100
In short: as §2

[16] = test system: green foxtail (Setaria viridis, SETVI); assay: as above; conditions: post-emerge, 14 days after application, rating scale 0-100
In short: as §2

[17] = test system: ivyleaf morningglory (Ipomoea hederacea, IPOHE); assay: as above; conditions: post-emerge, 14 days after application, rating scale 0-100
In short: as §2

[18] = test system: sicklepod (Cassia obtusifolia, CASOB); assay: as above; conditions: post-emerge, 14 days after application, rating scale 0-100
In short: as §2

[19] = test system: field corn (Zea mays L., var. Dekalb 535, CORN); assay: Post-emerge test, crop safety; conditions: post-emerge, 14 days after application, rating scale 0-100
In short: as §1

[20] = test system: upland rice (Oryza sp., var. Tebonnet, RICE); assay: Post-emerge test, crop safety; conditions: post-emerge, 14 days after application, rating scale 0-100
In short: as §1

[21] = test system: field corn (Zea mays L., var. Dekalb 535, CORN); assay: Pre-emerge test, crop safety; conditions: pre-emerge, 14 days after application, rating scale 0-100
In short: (§3)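 Applied at 15–1000 g ai/ha from acetone in 187 l/ha spray volume. Post-emergence applications included 0.25% v/v non-ionic surfactant and reached plants sown 8–21 days before. Pre-emergence applications were incorporated by surface watering. Efficacy or crop damage was rated on a 0–100 scale after 14 days.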

[22] = test system: upland rice (Oryza sp., var. Tebonnet, RICE); assay: Pre-emerge test, crop safety; conditions: pre-emerge, 14 days after application, rating scale 0-100
In short: as §3

[23] = test system: redroot pigweed (Amaranthus retroflexus, AMARE); assay: Pre-emerge test, greenhouse herbicide activity screening; conditions: pre-emerge, 14 days after application, rating scale 0-100
In short: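 Visual ratings on a 0-100 scale (0 no damage, 100 all plants dead) were taken at 14 days after treatment. Rates of 15-1000 g ai/ha in acetone, 187 l/ha, were sprayed onto soil one day after planting (pre-emerge) or onto 2-3 leaf plants with 0.25% v/v surfactant (post-emerge).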

[24] = 63 g ai/ha, rating scale 0-100 (0 no damage, 100 complete death)
[25] = 250 g ai/ha, rating scale 0-100

SMILES: CCCOC(=O)C(Cl)Cc1c(OCC)c(Cl)cc(F)c1-n1c(=O)cc(C(F)(F)F)n(C)c1=O (centres unmarked) [14-65]
- phytotoxicity rating CHEAL ([1]; 63 g ai/ha): 60
- phytotoxicity rating CHEAL ([1]; 250 g ai/ha): 100
- phytotoxicity rating DIGSA ([2]; 63 g ai/ha): 90
- phytotoxicity rating DIGSA ([2]; 250 g ai/ha): 100
- phytotoxicity rating AMBEL ([3]; 63 g ai/ha): 100
- phytotoxicity rating AMBEL ([3]; 250 g ai/ha): 70
- phytotoxicity rating ECHCG ([4]; 63 g ai/ha): 0
- phytotoxicity rating ECHCG ([4]; 250 g ai/ha): 80
- phytotoxicity rating ABUTH ([5]; 63 g ai/ha): 90
- phytotoxicity rating ABUTH ([5]; 250 g ai/ha): 100
- phytotoxicity rating SORHA ([6]; 63 g ai/ha): 20
- phytotoxicity rating SORHA ([6]; 250 g ai/ha): 20
- phytotoxicity rating SETVI ([7]; 63 g ai/ha): 20
- phytotoxicity rating SETVI ([7]; 250 g ai/ha): 90
- phytotoxicity rating IPOHE ([8]; 63 g ai/ha): 40
- phytotoxicity rating IPOHE ([8]; 250 g ai/ha): 70
- phytotoxicity rating CASOB ([9]; 63 g ai/ha): 40
- phytotoxicity rating CASOB ([9]; 250 g ai/ha): 80
- Post-emerge Herbicidal Activity CHEAL (phytotoxicity rating) ([10]; 63 g ai/ha): 90
- Post-emerge Herbicidal Activity CHEAL (phytotoxicity rating) ([10]; 250 g ai/ha): 100
- Post-emerge Herbicidal Activity DIGSA (phytotoxicity rating) ([11]; 63 g ai/ha): 99
- Post-emerge Herbicidal Activity DIGSA (phytotoxicity rating) ([11]; 250 g ai/ha): 100
- Post-emerge Herbicidal Activity ECHCG (phytotoxicity rating) ([12]; 63 g ai/ha): 100
- Post-emerge Herbicidal Activity ECHCG (phytotoxicity rating) ([12]; 250 g ai/ha): 100
- Post-emerge Herbicidal Activity AMARE (phytotoxicity rating) [13, 24]: 100
- Post-emerge Herbicidal Activity AMARE (phytotoxicity rating) [13, 25]: 100
- Post-emerge Herbicidal Activity ABUTH (phytotoxicity rating) ([14]; 63 g ai/ha): 100
- Post-emerge Herbicidal Activity ABUTH (phytotoxicity rating) ([14]; 250 g ai/ha): 100
- Post-emerge Herbicidal Activity SORHA (phytotoxicity rating) ([15]; 63 g ai/ha): 30
- Post-emerge Herbicidal Activity SORHA (phytotoxicity rating) ([15]; 250 g ai/ha): 60
- Post-emerge Herbicidal Activity SETVI (phytotoxicity rating) ([16]; 63 g ai/ha): 100
- Post-emerge Herbicidal Activity SETVI (phytotoxicity rating) ([16]; 250 g ai/ha): 100
- Post-emerge Herbicidal Activity IPOHE (phytotoxicity rating) ([17]; 63 g ai/ha): 50
- Post-emerge Herbicidal Activity IPOHE (phytotoxicity rating) ([17]; 250 g ai/ha): 70
- Post-emerge Herbicidal Activity CASOB (phytotoxicity rating) ([18]; 63 g ai/ha): 90
- Post-emerge Herbicidal Activity CASOB (phytotoxicity rating) ([18]; 250 g ai/ha): 100
- Post-emerge Herbicidal Activity CORN (crop damage rating) ([19]; 63 g ai/ha): 0
- Post-emerge Herbicidal Activity CORN (crop damage rating) ([19]; 250 g ai/ha): 50
- Post-emerge Herbicidal Activity RICE (crop damage rating) ([20]; 63 g ai/ha): 0
- Post-emerge Herbicidal Activity RICE (crop damage rating) ([20]; 250 g ai/ha): 10
- phytotoxicity rating CORN ([21]; 63 g ai/ha): 0
- phytotoxicity rating CORN ([21]; 250 g ai/ha): 0
- phytotoxicity rating RICE ([22]; 63 g ai/ha): 0
- phytotoxicity rating RICE ([22]; 250 g ai/ha): 0
- phytotoxicity rating AMARE ([23]; 63 g ai/ha): 100
- phytotoxicity rating AMARE ([23]; 250 g ai/ha): 100

SMILES: CCOC(=O)C(Cl)Cc1c(OC)c(Cl)cc(F)c1-n1nc(C(F)(F)F)n(C)c1=O (centres unmarked) [14-61]
- phytotoxicity rating CHEAL ([1]; 63 g ai/ha): 0
- phytotoxicity rating CHEAL ([1]; 250 g ai/ha): 80
- phytotoxicity rating DIGSA ([2]; 63 g ai/ha): 0
- phytotoxicity rating DIGSA ([2]; 250 g ai/ha): 40
- phytotoxicity rating AMBEL ([3]; 63 g ai/ha): 0
- phytotoxicity rating AMBEL ([3]; 250 g ai/ha): 0
- phytotoxicity rating ECHCG ([4]; 63 g ai/ha): 0
- phytotoxicity rating ECHCG ([4]; 250 g ai/ha): 0
- phytotoxicity rating ABUTH ([5]; 63 g ai/ha): 0
- phytotoxicity rating ABUTH ([5]; 250 g ai/ha): 40
- phytotoxicity rating SORHA ([6]; 63 g ai/ha): 0
- phytotoxicity rating SORHA ([6]; 250 g ai/ha): 20
- phytotoxicity rating SETVI ([7]; 63 g ai/ha): 0
- phytotoxicity rating SETVI ([7]; 250 g ai/ha): 60
- phytotoxicity rating IPOHE ([8]; 63 g ai/ha): 0
- phytotoxicity rating IPOHE ([8]; 250 g ai/ha): 20
- phytotoxicity rating CASOB ([9]; 63 g ai/ha): 0
- phytotoxicity rating CASOB ([9]; 250 g ai/ha): 0
- Post-emerge Herbicidal Activity CHEAL (phytotoxicity rating) ([10]; 63 g ai/ha): 40
- Post-emerge Herbicidal Activity CHEAL (phytotoxicity rating) ([10]; 250 g ai/ha): 75
- Post-emerge Herbicidal Activity DIGSA (phytotoxicity rating) ([11]; 63 g ai/ha): 0
- Post-emerge Herbicidal Activity DIGSA (phytotoxicity rating) ([11]; 250 g ai/ha): 70
- Post-emerge Herbicidal Activity ECHCG (phytotoxicity rating) ([12]; 63 g ai/ha): 0
- Post-emerge Herbicidal Activity ECHCG (phytotoxicity rating) ([12]; 250 g ai/ha): 60
- Post-emerge Herbicidal Activity AMARE (phytotoxicity rating) [13, 24]: 20
- Post-emerge Herbicidal Activity AMARE (phytotoxicity rating) [13, 25]: 60
- Post-emerge Herbicidal Activity ABUTH (phytotoxicity rating) ([14]; 63 g ai/ha): 30
- Post-emerge Herbicidal Activity ABUTH (phytotoxicity rating) ([14]; 250 g ai/ha): 60
- Post-emerge Herbicidal Activity SORHA (phytotoxicity rating) ([15]; 63 g ai/ha): 0
- Post-emerge Herbicidal Activity SORHA (phytotoxicity rating) ([15]; 250 g ai/ha): 20
- Post-emerge Herbicidal Activity SETVI (phytotoxicity rating) ([16]; 63 g ai/ha): 0
- Post-emerge Herbicidal Activity SETVI (phytotoxicity rating) ([16]; 250 g ai/ha): 20
- Post-emerge Herbicidal Activity IPOHE (phytotoxicity rating) ([17]; 63 g ai/ha): 20
- Post-emerge Herbicidal Activity IPOHE (phytotoxicity rating) ([17]; 250 g ai/ha): 50
- Post-emerge Herbicidal Activity CASOB (phytotoxicity rating) ([18]; 63 g ai/ha): 0
- Post-emerge Herbicidal Activity CASOB (phytotoxicity rating) ([18]; 250 g ai/ha): 30
- Post-emerge Herbicidal Activity CORN (crop damage rating) ([19]; 63 g ai/ha): 0
- Post-emerge Herbicidal Activity CORN (crop damage rating) ([19]; 250 g ai/ha): 70
- Post-emerge Herbicidal Activity RICE (crop damage rating) ([20]; 63 g ai/ha): 0
- Post-emerge Herbicidal Activity RICE (crop damage rating) ([20]; 250 g ai/ha): 30
- phytotoxicity rating CORN ([21]; 63 g ai/ha): 0
- phytotoxicity rating CORN ([21]; 250 g ai/ha): 0
- phytotoxicity rating RICE ([22]; 63 g ai/ha): 0
- phytotoxicity rating RICE ([22]; 250 g ai/ha): 0
- phytotoxicity rating AMARE ([23]; 63 g ai/ha): 30
- phytotoxicity rating AMARE ([23]; 250 g ai/ha): 95

Source: patent publication US6355799B1, “Substituted benzene compounds, process for their preparation, and herbicidal and defoliant compositions containing them” (ISK Americas Incorporated, priority 1997, dated 2002)
